Key:
insects = assay: Insecticidal activity (general statement); format: in vivo; conditions: in words
[1] = system: domestic flies (houseflies); assay: Activity against houseflies (topical application); format: in vivo, domestic flies of mixed sexes; conditions: for % dead after 24 hours: 1 μl acetone solution, dorsal thorax
Experimental: A. Activity against houseflies
The insecticidal tests were effected on domestic flies of mixed sexes by applying a topical solution of 1 μl of acetone solution of (S) α-cyano-3-phenoxybenzyl 2,2-dimethyl-3R-(2,2-dichlorovinyl)-cyclopropane-1R-carboxylate (product A) to the dorsal thorax of the flies. 50 flies were used for each test and the results were determined as the LD50, dose at which 50% of the flies were dead 24 hours after treatment.

[2] = system: Spodoptera Littoralis larvae; assay: Activity against Spodoptera Littoralis larvae (topical application); format: in vivo; conditions: for % dead after 24 h / % dead after 48 h: 1 μl acetone solution
Experimental: B. Activity against Spodoptera Littoralis larvae
This test was effected by topical application of 1 μl of an acetone solution of product A on the dorsal thorax of each larva and for each test, 15 caterpillers of Spodoptera Littoralis in the 4th larva stage were used. After treatment, the individuals were placed in an artificial nutritive media (Poitot medium) and the number of dead caterpillers was determined 24 and 48 hours after the treatment to determine the LD50 dose.

CC1(C)[C@H](C(=O)O[C@H](C#N)c2cccc(Oc3ccccc3)c2)[C@@H]1C=C(Cl)Cl [product A, (S) α-cyano-3-phenoxybenzyl 2,2-dimethyl-3R-(2,2-dichlorovinyl)-cyclopropane-1R-carboxylate]
insecticidal activity (insects): excellent insecticidal activity | % dead after 24 hours ([1]; dose 0.625 ng, topical): 10.0% | % dead after 24 hours ([1]; dose 1.25 ng, topical): 34.5% | % dead after 24 hours ([1]; dose 2.5 ng, topical): 68.0% | % dead after 24 hours ([1]; dose 3.75 ng, topical): 83.2% | % dead after 24 hours ([1]; dose 5 ng, topical): 93.3% | LD50 ([1]; dose at which 50% of the flies were dead 24 hours after treatment, topical): 1.6 ng | effective against domestic flies ([1]; in words, experimental tests): effective against domestic flies | insecticidal activity against houseflies ([1]; in words, from Table I): very high insecticidal activity | % dead after 24 h ([2]; dose 0.1562 ng, topical, dorsal thorax, 4th larva stage): 20.5% | % dead after 48 h ([2]; dose 0.1562 ng, topical, dorsal thorax, 4th larva stage, 48 h): 27.3% | % dead after 24 h ([2]; dose 0.3125 ng, topical, dorsal thorax, 4th larva stage): 48.9% | % dead after 48 h ([2]; dose 0.3125 ng, topical, dorsal thorax, 4th larva stage, 48 h): 62.2% | % dead after 24 h ([2]; dose 0.625 ng, topical, dorsal thorax, 4th larva stage): 80.0% | % dead after 48 h ([2]; dose 0.625 ng, topical, dorsal thorax, 4th larva stage, 48 h): 82.2% | % dead after 24 h ([2]; dose 1.25 ng, topical, dorsal thorax, 4th larva stage): 95.6% | % dead after 48 h ([2]; dose 1.25 ng, topical, dorsal thorax, 4th larva stage, 48 h): 97.8% | effective against larvae of Spodoptera Littoralis ([2]; in words, experimental tests): effective | LD50 at 48 h ([2]; topical, dorsal thorax, 4th larva stage, 48 h): 0.3 ng
